Measurements taken from patent publication US20070275961A1, “Triazolo ' 1, 5-A ! Pyrimidines and Their Use in Medicine” (VERNALIS (CAMBRIDGE) LIMITED., priority 2003, published 2007).
Where two headings read alike, the source gives them in different places.

Experiments:
Assay type in all cases: biochemical
[1] = target: T1, Chk1 (Homo sapiens, UniProt O14757); assay: Chk1 kinase assay, phosphorylation of Chktide (33P-ATP filtration); conditions: 0.01 mM ATP, read-out: Chk1 IC50
T1 sequence (O14757 1-476): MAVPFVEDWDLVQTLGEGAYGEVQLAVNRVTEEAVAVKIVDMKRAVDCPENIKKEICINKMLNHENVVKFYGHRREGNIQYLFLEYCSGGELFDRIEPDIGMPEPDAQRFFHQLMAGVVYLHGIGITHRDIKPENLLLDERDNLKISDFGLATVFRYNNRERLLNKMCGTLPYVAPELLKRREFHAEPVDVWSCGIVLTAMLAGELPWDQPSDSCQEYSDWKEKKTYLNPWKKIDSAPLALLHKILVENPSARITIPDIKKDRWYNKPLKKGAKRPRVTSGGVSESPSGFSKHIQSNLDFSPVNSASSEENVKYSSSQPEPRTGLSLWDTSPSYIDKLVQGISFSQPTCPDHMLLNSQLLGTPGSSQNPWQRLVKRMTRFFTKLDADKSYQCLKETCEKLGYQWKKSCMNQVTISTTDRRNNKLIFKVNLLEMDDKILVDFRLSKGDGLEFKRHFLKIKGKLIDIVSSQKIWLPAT
Summary of the method: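 GST-Chk1 (11 nM) with inhibitor, 30 μM Chktide peptide, 0.01 mM ATP plus 33P-γ-ATP in 50 mM Hepes pH 7.5 with 0.1 mg/ml BSA, 40 min at 30° C. Stopped with phosphoric acid; phosphorylated peptide captured on filter plates and scintillation-counted.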

[2] = target: T2, PDK1 enzyme (Homo sapiens, UniProt O15530); assay: PDK1 3'-phosphoinositide-dependent kinase assay, phosphorylation of synthetic peptide (33P-ATP filtration); conditions: 0.01 mM ATP, read-out: PDK1 IC50
T2 sequence (O15530 1-556): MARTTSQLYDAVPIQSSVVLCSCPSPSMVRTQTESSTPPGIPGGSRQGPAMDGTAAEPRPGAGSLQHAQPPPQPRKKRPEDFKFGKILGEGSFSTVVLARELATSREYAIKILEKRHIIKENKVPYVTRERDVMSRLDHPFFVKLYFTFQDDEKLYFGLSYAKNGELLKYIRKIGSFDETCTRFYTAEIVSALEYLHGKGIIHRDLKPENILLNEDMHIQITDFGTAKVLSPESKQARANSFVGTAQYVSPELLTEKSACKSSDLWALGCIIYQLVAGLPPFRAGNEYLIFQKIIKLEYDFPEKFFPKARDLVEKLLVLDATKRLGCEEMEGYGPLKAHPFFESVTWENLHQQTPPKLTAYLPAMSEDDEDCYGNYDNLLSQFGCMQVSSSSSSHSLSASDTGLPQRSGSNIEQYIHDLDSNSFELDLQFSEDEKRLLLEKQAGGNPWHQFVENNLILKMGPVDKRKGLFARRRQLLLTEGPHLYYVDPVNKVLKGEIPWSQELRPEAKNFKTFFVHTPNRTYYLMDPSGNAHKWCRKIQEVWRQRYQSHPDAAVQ
Summary of the method: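 Radiometric peptide phosphorylation by PDK1 with inhibitor, 60 min at 30 °C, using 0.01 mM ATP plus 33P-γ-ATP, 0.075 mM peptide, 7.5 mM Mg acetate in Tris-HCl pH 7.5. Phosphoric acid stopped reaction; phosphorylated peptide captured on filter plates and counted by scintillation.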

[3] = target: CDK2 enzyme, complexed with cyclin A (Homo sapiens, UniProt P24941); assay: CDK2 cyclin dependent kinase assay, phosphorylation of synthetic peptide […] (33P-ATP filtration); conditions: 0.1 mM ATP

SMILES	IC50 ([1]; Table 1) [µM]	IC50 ([2]; Table 1) [µM]	IC50 ([3]; Table 1) [µM]	IC50 ([1]; Table 3) [µM]	IC50 ([2]; Table 3) [µM]	IC50 ([3]; Table 3) [µM]
CCN(CC)CCNC(=O)c1ccc(Nc2cc(Cl)nc3ncnn23)cc1 [Example 39]	> 200	> 200	42.8	–	–	–
O=S(=O)(c1ccc(Nc2cc(Cl)nc3ncnn23)cc1)N1CCOCC1 [Example 17]	> 200	> 200	16.7	–	–	–
O=C(O)c1ccc(Nc2cc(-c3cccc(F)c3)n3ncnc3n2)cc1 [Example 132]	–	–	–	> 200	36.2	> 200
